Results taken from patent publication US6433174B1, “Process for producing novel naphthyridine derivatives” (Nippon Kayaku Kabushiki Kaisha, priority 1998, dated 2002).

Columns and labels:
NK-2 receptor [1] = molecular target: T1, NK-2 receptor (Rattus norvegicus, UniProt P16610); assay: NK-2 receptor binding test (125I-neurokinin A, rat duodenum membrane preparation); details: rat duodenum membranes, 125I-neurokinin A 1×10^−9 M, room temperature, 90 minutes; read-out: IC50 of the drug against radioactive neurokinin A binding
T1 construct: from tissue; host or cells: rat duodenum membrane preparation
T1 sequence (P16610 1-390): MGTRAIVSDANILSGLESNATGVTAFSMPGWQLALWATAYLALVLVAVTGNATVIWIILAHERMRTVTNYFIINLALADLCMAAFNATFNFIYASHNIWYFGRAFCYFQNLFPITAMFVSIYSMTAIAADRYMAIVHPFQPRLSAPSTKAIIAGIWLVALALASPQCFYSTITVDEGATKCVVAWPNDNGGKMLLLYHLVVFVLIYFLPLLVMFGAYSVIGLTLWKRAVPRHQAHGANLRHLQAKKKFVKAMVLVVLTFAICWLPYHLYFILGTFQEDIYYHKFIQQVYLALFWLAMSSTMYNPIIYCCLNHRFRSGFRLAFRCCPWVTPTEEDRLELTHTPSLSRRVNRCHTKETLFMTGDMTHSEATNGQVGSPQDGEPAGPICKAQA
Method: NK-2 Receptor Binding Test
The duodenum taken out from a Fischer-strain male rat was homogenized in a 50 mM tris-hydrochloride buffer solution containing ethylenediaminetetracetic acid (1 mM), and 48,000 g of the obtained homogenate was subjected to centrifugal sedimentation at 4° C. for 20 minutes. The produced pellets were washed thrice with 10 times as much volume of a 50 mM trishydrochloride butter solution containing KCl (300 mM) and ethylenediaminetetracetic acid (10 mM), and the obtained membrane preparation was suspended in 10 times as much volume of a 50 mM tris-hydrochloride buffer solution (pH 7.4) and kept at −80° C. till it was offered to use. The above membrane preparation (20 mg/ml) was incubated with a radioactive legand 125 I-neurokinin A (1×10^−9 M) in a 50 mM tris-hydrochloride buffer solution (pH 7.4) containing bovine serum albumin (10 mg/ml), bacitracin (40 μg/ml), leupepsin (4 μg/ml), chymostatin (50 μg/ml), antipain (1×10^−4 M) and MnCl2 (1 mM) in the presence of a drug or its solvent at room temperature for 90 minutes. The reaction solution was suction-filtered by a GE/B filter pretreated with polyethylene-imine (0.1%), and was washed with 3 ml of a 50 mM tris-hydrochloride buffer solution (pH 7.4) containing MnCl2 (1 mM), and the radioactivity in the filter was measured by a gamma counter. With the radioactivity in the presence of Nle10 eurokinin A (4-10) (3×10^−6 M) being taken as non-specific binding, the specific binding inhibition rate by the drug was given as control in the case of a solvent, and the 50% inhibition concentration (IC50) of the drug was determined from the linear regression.

Mouse = assay: Toxic action in mouse, intravenous administration; assay type: in vivo
Source text: Toxicity of the novel naphthyridine derivatives of the present invention was examined.

NK-2 receptor [2] = molecular target: T2, NK-2 receptor (Cavia porcellus, UniProt Q64077); assay: Inhibitory action against stricture of airway caused by NK-2 receptor stimulation and antigen inhalation; assay type: in vivo; details: guinea pig
T2 construct: Specimens were prepared by joining 5 slices from said trachea; from tissue; host or cells: isolated guinea pig trachea (A2); anesthetized guinea pig airway in vivo (A5)
T2 sequence (Q64077 1-402): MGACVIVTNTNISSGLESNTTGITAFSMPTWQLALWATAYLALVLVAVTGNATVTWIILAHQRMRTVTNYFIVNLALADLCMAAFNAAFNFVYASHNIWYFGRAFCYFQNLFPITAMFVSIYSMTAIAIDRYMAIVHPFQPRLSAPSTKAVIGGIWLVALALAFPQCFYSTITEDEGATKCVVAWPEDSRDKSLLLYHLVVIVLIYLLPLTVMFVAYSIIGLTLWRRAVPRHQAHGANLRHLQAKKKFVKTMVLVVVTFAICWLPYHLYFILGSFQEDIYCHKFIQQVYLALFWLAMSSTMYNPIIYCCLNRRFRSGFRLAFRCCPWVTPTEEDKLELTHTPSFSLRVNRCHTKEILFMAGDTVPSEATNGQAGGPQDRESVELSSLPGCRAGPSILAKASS
Method: Inhibitory Action Against Stricture of Airway
The non-treated Hartley strain male guinea pigs and the Hartley strain male guinea pigs which had been actively sensitized by subcutaneous administration of 300 mg/kg of ovalbumin 14 to 21 days ago were used. A tube was inserted into the trachea of each guinea pig anesthetized with pentobarbital, and positive pressure breathing was conducted at a rate of 60 times of breathing per minute (10 ml/kg) by an artificial breathing system. Lateral pressure of the tube in the trachea was measured as an index of stricture of airway. Spontaneous respiration was inhibited by the administration of succinylcholine. To the non-treated guinea pigs, 2 μmol of Nle10 neurokinin A (4-10)—a specific stimulant to NK-2 receptor—was intravenously injected repeatedly at intervals of 10 minutes. After the induced airway restriction reaction was stabilized, the drug was administered intravenously or perorally. 3 minutes after intravenous administration or 50 minutes after peroral or intraduodenal administration, Nle10 neurokinin A (4-10) was again intravenously injected. The inhibition rate by the drug was determined with the degree of airway restriction before drug administration as control.
15 minutes after intravenous administration of 4.6 μmol/kg of phosphoramidon to each actively sensitized guinea pig, it was forced to inhale, for 2 minutes, an aerosol of an antigen ovalbumin solution (2 mg/ml) generated by a supersonic nebulizer to induce stricture of the airway. The drug or its solvent was administered perorally 50 minutes before the antigen inhalation. 8 minutes after antigen inhalation of the solvent-administered group, the inhibition rate of the drug-administered group was determined with the degree of airway stricture of the solvent-administered group as control.

NK-3 receptor = molecular target: T3, NK-3 receptor (Cavia porcellus, UniProt P30098); assay: Antagonistic action against NK-3 receptor: senktide-induced contraction of isolated guinea pig ileum; assay type: cell-based; details: senktide 1×10^−9 M, 35-minute incubation, read-out: IC50 of the drug against contraction by senktide
T3 construct: its ileum was extracted; An approximately 3 cm long specimen was prepared therefrom; from tissue; host or cells: isolated guinea pig ileum
T3 sequence (P30098 1-440): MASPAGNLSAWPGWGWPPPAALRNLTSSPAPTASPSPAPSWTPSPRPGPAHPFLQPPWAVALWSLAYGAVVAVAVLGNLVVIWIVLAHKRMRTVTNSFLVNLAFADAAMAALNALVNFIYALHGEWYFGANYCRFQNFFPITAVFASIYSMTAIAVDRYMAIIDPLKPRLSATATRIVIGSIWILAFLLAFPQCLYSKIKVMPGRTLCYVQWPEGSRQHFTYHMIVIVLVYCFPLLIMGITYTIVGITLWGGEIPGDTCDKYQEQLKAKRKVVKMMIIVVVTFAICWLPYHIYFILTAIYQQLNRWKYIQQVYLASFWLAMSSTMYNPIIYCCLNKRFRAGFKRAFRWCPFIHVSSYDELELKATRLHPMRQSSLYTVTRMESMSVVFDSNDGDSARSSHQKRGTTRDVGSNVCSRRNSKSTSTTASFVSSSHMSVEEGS
Method: Antagonistic Action Against NK-3 Receptor
A Hartley-strain male guinea pig was caused to die by head contusion and blood depletion, and its ileum was extracted. An approximately 3 cm long specimen was prepared therefrom, and it was suspended with a tension of 0.5 gram-weight in a 15 ml Magunus tank containing a 37° C. Kregs-Henseleit liquid through which a mixed gas of 95% O2 and 5% CO2 had been passed. A Krebs-Henseleit liquid containing atropin (1×10^−6 M) and indomethacin (5×10^−6 M) was used to obviate the participation of endogenous acetylcholine and prostaglandin. Senktide (1×10^−9 M), which is a specific stimulant of NK-3 receptor, was acted repeatedly at intervals of 50 minutes. After contraction by senktide was stabilized, the drug was added in various concentrations and, after 35-minute incubation, senktide was again acted. The contraction inhibition rate by the drug was determined with the amount of contraction just before the addition of the drug as control, and the 50% inhibition concentration (IC50) of the drug was determined from the linear regression.

NK-2 receptor [3] = molecular target: T2, NK-2 receptor; assay: Antagonistic action against NK-2 receptor: neurokinin A-induced contraction of isolated guinea pig trachea; assay type: cell-based; details: drug concentration 5 × 10^−9 M, neurokinin A 1×10^−9 M, 110-minute incubation, read-out: Inhibition rate of neurokinin A-induced contraction
Method: Antagonistic Action Against NK-2 Receptor
A Hartley-strain male guinea pig was caused to die by head contusion and blood depletion, and its trachea was extracted. Specimens were prepared by joining 5 slices from said trachea, and they were suspended with a tension of 0.5 gram-weight in a 15-ml Magunus tank containing a 37° C. Krebs-Henseleit liquid through which a mixed gas of 95% O2 and 5% CO2 had been passed. A Krebs-Henseleit liquid containing indomethacin (5×10^−6 M) was used to obviate the participation of endogenous prostaglandin. After confirming the maximum contraction of each specimen by methacholine, a drug or its solvent was added and, after 110-minute incubation, neurokinin A (1×10^−9 M) was acted thereto. Phosphoramidon (1×10^−5 M) was added for inhibiting decomposition of neurokinin A 30 minutes before the addition of neurokinin A and (±) CP-96345 (3×10^−7 M) was added for eliminating the participation of NK-1 receptor 20 minutes before the addition of neurokinin A. The contraction by neurokinin A was first determined as a ratio to the maximum contraction of each specimen, and then the inhibition rate by the drug was determined with the amount of contraction of the solvent-added specimen as control.

NK-1 receptor = molecular target: T4, NK-1 receptor (Cavia porcellus, UniProt P30547); assay: Antagonistic action against NK-1 receptor: Methyl Substance P-induced contraction of isolated guinea pig ileum; assay type: cell-based; details: Methyl Substance P 1×10^−9 M, 35-minute incubation, read-out: IC50 of the drug against contraction by Methyl Substance P
T4 construct: its ileum was extracted; An approximately 3 cm long specimen was prepared therefrom; from tissue; host or cells: isolated guinea pig ileum
Method: Antagonistic Action Against NK-1 Receptor
A Hartley strain male guinea pig was caused to die by head contusion and blood depletion, and its ileum was extracted. An approximately 3 cm long specimen was prepared therefrom, and it was suspended with a tension of 0.5 gram-weight in a 15 ml Mogunus tank containing a 37° C. Krebs-Henseleit liquid through which a mixed gas of 95% O2 and 5% CO2 had been passed. A Krebs-Henseleit liquid containing atropin (1×10^−6 M) and indomethacin (5×10^−6 M) was used to get rid of the participation of endogenous acetylcholine and prostaglandin. Methyl Substance P (1×10^−9 M), which is a specific stimulant of NK-1 receptor, was acted repeatedly at intervals of 40 minutes. After contraction by Methyl Substance P was stabilized, the drug was added in various concentrations and, after 35-minute incubation, Methyl Substance P was again acted. The contraction inhibition rate by the drug was determined with the contraction just before the addition of the drug as control, and the 50% inhibition concentration (IC50) of the drug was calculated from the linear regression.

T4 sequence (P30547 whole entry): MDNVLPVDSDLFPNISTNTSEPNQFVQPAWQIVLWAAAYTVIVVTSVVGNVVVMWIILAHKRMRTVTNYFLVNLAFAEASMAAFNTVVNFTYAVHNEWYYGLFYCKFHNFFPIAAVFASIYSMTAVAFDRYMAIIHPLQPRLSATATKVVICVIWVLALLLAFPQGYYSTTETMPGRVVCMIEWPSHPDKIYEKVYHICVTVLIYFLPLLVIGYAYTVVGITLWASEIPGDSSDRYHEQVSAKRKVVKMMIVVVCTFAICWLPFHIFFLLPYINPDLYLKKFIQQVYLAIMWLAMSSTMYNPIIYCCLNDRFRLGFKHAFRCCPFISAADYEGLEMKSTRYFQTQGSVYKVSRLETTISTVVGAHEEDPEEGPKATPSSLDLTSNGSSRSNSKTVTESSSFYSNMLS

SMILES | IC50 (NK-2 receptor [1]) [µM] | Toxicity by intravenous administration of the drug (Mouse; 65 μmol/kg intravenous) | Inhibition rate (%) NK-2 receptor stimulation and antigen inhalation (NK-2 receptor [2]; 0.5 μmol/kg, Intravenous) [%] | Inhibition rate (%) NK-2 receptor stimulation and antigen inhalation (NK-2 receptor [2]; 8 μmol/kg, Peroral) [%] | IC50 (NK-3 receptor) [µM] | Toxicity by intravenous administration of the drug (Mouse; 22 μmol/kg intravenous) | Inhibition rate (%) NK-2 receptor stimulation and antigen inhalation (NK-2 receptor [2]; 1 μmol/kg, Intravenous) [%] | Inhibition rate (%) NK-2 receptor stimulation and antigen inhalation (NK-2 receptor [2]; 10 μmol/kg, Peroral) [%] | inhibition at 0.005 µM (NK-2 receptor [3]) [%] | IC50 (NK-1 receptor) [µM]
CC(=O)Nc1c2c(nc3ccccc13)CCN(CCC(CN(C)C(=O)c1ccccc1)c1ccc(Cl)c(Cl)c1)C2 (stereo not drawn) [(6)-b] | 0.018 | None | 100.0 | 81.5 | – | – | – | – | – | –
CN(CC(CCN1CCc2nc3c(cc2C1)CCCC3)c1ccc(Cl)c(Cl)c1)C(=O)c1ccccc1 (stereo not drawn) [(2)-b] | 0.056 | None | – | 67.2 | 0.18 | None | 94.2 | 54.1 | 89.1 | 0.47
CN(CC(CCN1CCc2nc3ccccc3c(-c3ccccc3)c2C1)c1ccc(Cl)c(Cl)c1)C(=O)c1ccccc1 (stereo not drawn) [(3)-b] | 0.07 | – | 70.0 | – | – | – | – | – | – | –
